These results are taken from US20230265116A1, “DEGRADATION OF (EGFR) BY CONJUGATION OF EGFR INHIBITORS WITH E3 LIGASE LIGAND AND METHODS OF USE” (BEIGENE, LTD., priority 2020, published 2023).

Assay [1] relates to EGFR Del19/T790M/C797S (BaF3-DTC cells). Nature of the assay: EGFR degradation HTRF assay, BaF3-DTC cells. It is filed as cell-based. To be noted: 16h treatment; for DTC Dmax (%): maximum percentage of degradation; for DC50: read-out: DTC DC50. Here is the method:
BaF3 WT(wild type), BaF3-LTC(L858R/T790M/C797S) and BaF3-DTC(Del19/T790M/C797S) cells are treated with compounds diluted in 0.2% DMSO cell culture medium and incubate for 16h, 37° C., 5% CO2, H1975-#36, H1975-#28, H1975-#23 and HCC827 cells are treated with compounds diluted in 0.2% DMSO cell culture medium on day 2, incubate for 16h, 37° C., 5% CO2.the final concentriation of compounds in all assay is start with 10 uM, 5-fold dilution, total 8 doses were included.
After 16h treatment, add HTRF lysis buffer to each well; seal the plate and incubate 1 hour at room temperature on a plate shaker; Once the cells are lysed, 16 μL of cell lysate are transferred to a PE 384-well HTRF detection plate; 4 μL of pre-mixed HTRF antibodies are added to each well; Cover the plate with a plate sealer, spin 1000 rpm for 1 min, Incubate overnight at room temperature; Read on BMG PheraStar with HTRF protocol (337 nm-665 nm-620 nm).
The inhibition (degradation) percentage of the compound was calculated by the following equation: Inhibition percentage of Compound=100-100×(Signal-low control)/(High control-low control), wherein signal=each test compound group
High control=Cell group with added DMSO and without compound, indicating microplate readings without EGFR degradation;
Dmax is the maximum percentage of inhibition (degradation).
The IC50 (DC50) value of a compound can be obtained by fitting the following equation
Y=Bottom+(TOP−Bottom)/(1+((IC50/X)^hillslope))
Wherein, X and Y are known values, and IC50, Hillslope, Top and Bottom are the parameters obtained by fitting with software. Y is the inhibition percentage (calculated from the equation), X is the concentration of the compound; IC50 is the concentration of the compound when the 50% inhibition is reached. The smaller the IC50 value is, the stronger the inhibitory ability of the compound is. Vice versa, the higher the IC50 value is, the weaker the inhibitory ability of the compound is; Hillslope represents the slope of the fitted curve, generally around 1*; Bottom represents the minimum value of the curve obtained by data fitting, which is generally 0%±20%; Top represents the maximum value of the curve obtained by data fitting, which is generally 100%±20%. The experimental data were fitted by calculating and analyzing with Dotmatics data analysis software.

The target of assay [2] is T1, EGFR L858R/T790M/C797S (BaF3-LTC cells) (Homo sapiens, UniProt P00533, C797S/L858R/T790M).
T1 construct: expressed in transfected cells; host or cells: BaF3
Kind of assay: EGFR degradation HTRF assay, BaF3-LTC cells. In kind it is cell-based. The note with it: BaF3-LTC, 16h treatment; for Dmax: maximum percentage of degradation, read-out: LTC Dmax (%); for DC50: read-out: LTC DC50. The procedure, abridged: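 EGFR remaining after a 16 h, 37 °C exposure (8 doses, 5-fold steps from 10 uM final, 0.2% DMSO) was quantified by HTRF antibodies in cell lysate. Percent inhibition relative to DMSO control was fitted by four-parameter logistic to give DC50; Dmax denotes maximal degradation.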
(In general: TR-FRET usually uses a lanthanide donor and a delayed reading to cut background.)

T1 sequence (P00533 25-1210 T790M/C797S/L858R): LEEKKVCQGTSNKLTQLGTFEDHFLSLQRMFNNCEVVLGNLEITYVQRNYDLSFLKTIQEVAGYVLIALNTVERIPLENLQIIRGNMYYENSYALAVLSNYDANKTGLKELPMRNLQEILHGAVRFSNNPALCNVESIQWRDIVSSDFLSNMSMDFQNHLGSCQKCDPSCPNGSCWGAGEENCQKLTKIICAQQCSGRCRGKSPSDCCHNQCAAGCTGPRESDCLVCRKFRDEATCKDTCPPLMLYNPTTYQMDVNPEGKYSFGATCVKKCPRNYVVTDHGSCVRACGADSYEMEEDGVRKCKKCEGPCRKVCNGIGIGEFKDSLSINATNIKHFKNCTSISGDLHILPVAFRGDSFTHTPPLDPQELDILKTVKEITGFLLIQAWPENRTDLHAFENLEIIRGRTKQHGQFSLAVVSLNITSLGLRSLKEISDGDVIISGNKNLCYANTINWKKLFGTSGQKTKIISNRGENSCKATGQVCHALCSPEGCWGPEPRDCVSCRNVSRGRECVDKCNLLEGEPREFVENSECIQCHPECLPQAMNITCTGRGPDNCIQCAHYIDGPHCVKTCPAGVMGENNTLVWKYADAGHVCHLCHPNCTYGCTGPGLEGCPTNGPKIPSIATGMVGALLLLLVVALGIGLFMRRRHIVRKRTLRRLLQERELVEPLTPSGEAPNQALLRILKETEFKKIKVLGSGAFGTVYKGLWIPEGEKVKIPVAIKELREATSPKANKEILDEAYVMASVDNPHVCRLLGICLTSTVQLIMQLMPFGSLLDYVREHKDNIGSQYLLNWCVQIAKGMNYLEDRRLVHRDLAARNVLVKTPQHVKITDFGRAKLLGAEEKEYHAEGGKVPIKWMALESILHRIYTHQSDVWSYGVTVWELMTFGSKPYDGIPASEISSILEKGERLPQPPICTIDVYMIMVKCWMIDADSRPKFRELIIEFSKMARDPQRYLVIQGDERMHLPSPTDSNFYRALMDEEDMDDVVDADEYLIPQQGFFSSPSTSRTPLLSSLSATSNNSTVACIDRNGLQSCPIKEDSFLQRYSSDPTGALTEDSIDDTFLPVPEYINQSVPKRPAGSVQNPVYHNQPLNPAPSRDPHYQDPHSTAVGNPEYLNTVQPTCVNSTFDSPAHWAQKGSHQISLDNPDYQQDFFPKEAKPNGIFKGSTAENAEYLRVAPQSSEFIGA

For the molecule `CCc1cc(Nc2ncc(Br)c(Nc3ccc4nccnc4c3P(C)(C)=O)n2)c(OC)cc1N1CCN(C2CCN(C3CCC(c4ccc(C5CCC(=O)NC5=O)cc4)C3)CC2)CC1` (stereo not drawn) [Example 178, 3-(4-(3-(4-(4-(4-((5-bromo-4-((5-(dimethylphosphoryl)quinoxalin-6-yl)amino)pyrimidin-2-yl)amino)-2-ethyl-5-methoxyphenyl)piperazin-1-yl)piperidin-1-yl)cyclopentyl)phenyl)piperidine-2,6-dione], in assay [1], the “DTC Dmax (%)” value stood at 81.18% and the DC50 stood at 44.4 nM. In assay [2], the Dmax was found to be 83.5% and the DC50 came out at 71.8 nM.
In the same order, the values of `CCc1cc(Nc2ncc(Br)c(Nc3ccc4nccnc4c3P(C)(C)=O)n2)c(OC)cc1N1CCC(N2CCN(C(=O)C3CN(c4ccc(C5CCC(=O)NC5=O)cc4)C3)CC2)CC1` (stereo not drawn) [Example 199, 3-(4-(3-(4-(1-(4-((5-bromo-4-((5-(dimethylphosphoryl)quinoxalin-6-yl)amino)pyrimidin-2-yl)amino)-2-ethyl-5-methoxyphenyl)piperidin-4-yl)piperazine-1-carbonyl)azetidin-1-yl)phenyl)piperidine-2,6-dione] are 84.49%, 9.03 nM, 86.6% and 22.1 nM.
For `CCc1cc(Nc2ncc(Br)c(Nc3ccc4cc(C)ncc4c3P(C)(C)=O)n2)c(OC)cc1N1CCC(N2CCN(CCc3cc(F)c(C4CCC(=O)NC4=O)c(F)c3)CC2)CC1` (stereo not drawn) [Example 200, 3-(4-(2-(4-(1-(4-((5-bromo-4-((8-(dimethylphosphoryl)-3-methylisoquinolin-7-yl)amino)pyrimidin-2-yl)amino)-2-ethyl-5-methoxyphenyl)piperidin-4-yl)piperazin-1-yl)ethyl)-2,6-difluorophenyl)piperidine-2,6-dione] the same measures were 93.3%, 2.8 nM, 88.6% and 11.1 nM.
Take `CCc1cc(Nc2ncc(Br)c(Nc3ccc4ncccc4c3P(C)(C)=O)n2)c(OC)cc1N1CCC(N2CCN(CCc3cc(F)c(C4CCC(=O)NC4=O)c(F)c3)CC2)CC1` (stereo not drawn) [Example 201, 3-(4-(2-(4-(1-(4-((5-bromo-4-((5-(dimethylphosphoryl)quinolin-6-yl)amino)pyrimidin-2-yl)amino)-2-ethyl-5-methoxyphenyl)piperidin-4-yl)piperazin-1-yl)ethyl)-2,6-difluorophenyl)piperidine-2,6-dione]: in assay [1], the “DTC Dmax (%)” value came out at 95.68% and the DC50 worked out at 1.72 nM. Besides, in assay [2], the greatest degradation seen (Dmax) was 92% and the DC50 worked out at 6.8 nM.
In the same order, the values of `CCc1cc(Nc2ncc(Br)c(Nc3ccc4ncccc4c3P(C)(C)=O)n2)c(OC)cc1N1CCC(N2CCN(CCC3CCN(c4cc(F)c(C5CCC(=O)NC5=O)c(F)c4)CC3)CC2)CC1` (stereo not drawn) [Example 202, 3-(4-(4-(2-(4-(1-(4-((5-bromo-4-((5-(dimethylphosphoryl)quinolin-6-yl)amino)pyrimidin-2-yl)amino)-2-ethyl-5-methoxyphenyl)piperidin-4-yl)piperazin-1-yl)ethyl)piperidin-1-yl)-2,6-difluorophenyl)piperidine-2,6-dione] are 93.39%, 7.6 nM, 87.8% and 18.5 nM.
In the same order, the values of `COc1cc(N2CCN(C3CN(CCC4CCN(c5cc(F)c(C6CCC(=O)NC6=O)c(F)c5)CC4)C3)CC2)c(C)cc1Nc1ncc(Br)c(Nc2ccc3nccnc3c2P(C)(C)=O)n1` (stereo not drawn) [Example 204, 3-(4-(4-(2-(3-(4-(4-((5-bromo-4-((5-(dimethylphosphoryl)quinoxalin-6-yl)amino)pyrimidin-2-yl)amino)-5-methoxy-2-methylphenyl)piperazin-1-yl)azetidin-1-yl)ethyl)piperidin-1-yl)-2,6-difluorophenyl)piperidine-2,6-dione] are 91.45%, 15.6 nM, 85.7% and 31 nM.
For `CCc1cc(Nc2ncc(Br)c(Nc3ccc4nccnc4c3P(C)(C)=O)n2)c(OC)cc1N1CCC(N2CCN(CCCc3cc(F)c(C4CCC(=O)NC4=O)c(F)c3)CC2)CC1` (stereo not drawn) [Example 205, 3-(4-(3-(4-(1-(4-((5-bromo-4-((5-(dimethylphosphoryl)quinoxalin-6-yl)amino)pyrimidin-2-yl)amino)-2-ethyl-5-methoxyphenyl)piperidin-4-yl)piperazin-1-yl)propyl)-2,6-difluorophenyl)piperidine-2,6-dione] the same measures were 90.39%, 6.63 nM, 87.7% and 32.5 nM.
`CCc1cc(Nc2ncc(Br)c(Nc3ccc4scnc4c3P(C)(C)=O)n2)c(OC)cc1N1CCC(N2CCN(CCc3cc(F)c(C4CCC(=O)NC4=O)c(F)c3)CC2)CC1` (stereo not drawn) [Example 206, 3-(4-(2-(4-(1-(4-((5-bromo-4-((4-(dimethylphosphoryl)benzo[d]thiazol-5-yl)amino)pyrimidin-2-yl)amino)-2-ethyl-5-methoxyphenyl)piperidin-4-yl)piperazin-1-yl)ethyl)-2,6-difluorophenyl)piperidine-2,6-dione]: in assay [1], the “DTC Dmax (%)” value was 94.22% and the DC50 is 9.26 nM. Besides, in assay [2], the Dmax came to 92.1% and the DC50 was 20.9 nM.
In the case of `CCc1cc(Nc2ncc(Br)c(Nc3ccc4nc(C)ccc4c3P(C)(C)=O)n2)c(OC)cc1N1CCC(N2CCN(CC3CN(c4ccc(C5CCC(=O)NC5=O)c(C#N)c4)C3)CC2)CC1` (stereo not drawn) [Example 207, 5-(3-((4-(1-(4-((5-bromo-4-((5-(dimethylphosphoryl)-2-methylquinolin-6-yl)amino)pyrimidin-2-yl)amino)-2-ethyl-5-methoxyphenyl)piperidin-4-yl)piperazin-1-yl)methyl)azetidin-1-yl)-2-(2,6-dioxopiperidin-3-yl)benzonitrile], in assay [1], the “DTC Dmax (%)” value is reported as 90.41% and the DC50 stood at 6.6 nM. In assay [2], the Dmax was 91.3% and the DC50 amounted to 13.2 nM.
In the case of `CCc1cc(Nc2ncc(Br)c(Nc3ccc4nc(C)ccc4c3P(C)(C)=O)n2)c(OC)cc1N1CCC(N2CCN(C(=O)[C@@H]3CCN(c4cc(F)c(C5CCC(=O)NC5=O)c(F)c4)C3)CC2)CC1` (stereo partly drawn) [Example 208, 3-(4-((R)-3-(4-(1-(4-((5-bromo-4-((5-(dimethylphosphoryl)-2-methylquinolin-6-yl)amino)pyrimidin-2-yl)amino)-2-ethyl-5-methoxyphenyl)piperidin-4-yl)piperazine-1-carbonyl)pyrrolidin-1-yl)-2,6-difluorophenyl)piperidine-2,6-dione], in assay [1], the “DTC Dmax (%)” value was found to be 97.62% and the DC50 stood at 1.47 nM. In assay [2], the Dmax is 93.9% and the DC50 was 4.13 nM.
For `CCc1cc(Nc2ncc(Br)c(Nc3ccc4nc(C)ccc4c3P(C)(C)=O)n2)c(OC)cc1N1CCC(N2CCN(C(=O)[C@H]3C[C@H](Nc4cc(F)c(C5CCC(=O)NC5=O)c(F)c4)C3)CC2)CC1` (stereo partly drawn) [Example 209, 3-(4-(((1r,3r)-3-(4-(1-(4-((5-bromo-4-((5-(dimethylphosphoryl)-2-methylquinolin-6-yl)amino)pyrimidin-2-yl)amino)-2-ethyl-5-methoxyphenyl)piperidin-4-yl)piperazine-1-carbonyl)cyclobutyl)amino)-2,6-difluorophenyl)piperidine-2,6-dione] the same measures were 96.2%, 2.1 nM, 95.5% and 3.92 nM.
In the same order, the values of `CCc1cc(Nc2ncc(Br)c(Nc3ccc4nc(C)ccc4c3P(C)(C)=O)n2)c(OC)cc1N1CCC(N2CCN(C(=O)C3CCN(c4ccc5c(c4)n(C)c(=O)n5C4CCC(=O)NC4=O)CC3)CC2)CC1` (stereo not drawn) [Example 210, 3-(5-(4-(4-(1-(4-((5-bromo-4-((5-(dimethylphosphoryl)-2-methylquinolin-6-yl)amino)pyrimidin-2-yl)amino)-2-ethyl-5-methoxyphenyl)piperidin-4-yl)piperazine-1-carbonyl)piperidin-1-yl)-3-methyl-2-oxo-2,3-dihydro-1H-benzo[d]imidazol-1-yl)piperidine-2,6-dione] are 92.69%, 0.781 nM, 90.5% and 1.24 nM.

What is called DC50 is the concentration giving 50% degradation. As a reminder, the Dmax is the largest share of the target that was removed.
